Test results reported in patent US9163240B2, “SR-BI mutation as a predictor of low progesterone levels and poor fetal viability during pregnancy” (The Johns Hopkins University, priority 2009, dated 2015).

Key:
HGL5 cells = assay: Progesterone secretion in HGL5 granulosa cells (RIA); format: cell-based, human; conditions: for rescue of impaired progesterone secretion in SR-BI KD cells: SR-BI KD cells incubated with the agent
female knockout mice = conditions: probucol added in the chow diet; cited from earlier work

SMILES: C=C[C@@]1(C)CC(=O)[C@]2(O)[C@@]3(C)[C@@H](O)CCC(C)(C)[C@@H]3[C@H](O)[C@H](OC(C)=O)[C@@]2(C)O1 [Fo, Forskolin]
- progesterone secretion higher as compared with DMSO (HGL5 cells; scrambled cells, 24 h, Fo 10 μM, serum 10%, HDL or LDL 50 μg protein/ml, p<0.001): > 2 fold

SMILES: CCCC(=O)Nc1ncnc2c1ncn2[C@@H]1O[C@@H]2COP(=O)(O)O[C@H]2[C@H]1OC(=O)CCC [dibutryl cAMP]
- rescue of impaired progesterone secretion in SR-BI KD cells (HGL5 cells): did not overcome the defect

SMILES: CC(C)CCC(O)[C@@H](C)[C@H]1CC[C@H]2[C@@H]3CC=C4C[C@@H](O)CC[C@]4(C)[C@H]3CC[C@]12C (stereo partly shown) [22-OH cholesterol, 22-hydroxycholesterol]
- rescue of impaired progesterone secretion in SR-BI KD cells (HGL5 cells): did not overcome this impairment

SMILES: CC(C)(Sc1cc(C(C)(C)C)c(O)c(C(C)(C)C)c1)Sc1cc(C(C)(C)C)c(O)c(C(C)(C)C)c1 [probucol]
- fertility of SR-BI knockout female mice (female knockout mice): restored
